Source: article PMC7179180, “Novel 2,4-Disubstituted-1,3-Thiazole Derivatives: Synthesis, Anti-Candida Activity Evaluation and Interaction with Bovine Serum Albumine” (Molecules, 2020)

Biological target: T1, bovine serum albumin (BSA) (Bos taurus, UniProt P02769)
T1 construct: gene ALB; native plasma protein, commercial BSA fraction V (Merck), mature single chain of 583 residues, no further purification
Test: Trp fluorescence quenching
Type: binding
Conditions: pH 7.4, room temperature, BSA 1.5 μM, double-log
Text: Trp fluorescence quenching on bovine serum albumin (BSA)

T1 sequence (P02769 25-607): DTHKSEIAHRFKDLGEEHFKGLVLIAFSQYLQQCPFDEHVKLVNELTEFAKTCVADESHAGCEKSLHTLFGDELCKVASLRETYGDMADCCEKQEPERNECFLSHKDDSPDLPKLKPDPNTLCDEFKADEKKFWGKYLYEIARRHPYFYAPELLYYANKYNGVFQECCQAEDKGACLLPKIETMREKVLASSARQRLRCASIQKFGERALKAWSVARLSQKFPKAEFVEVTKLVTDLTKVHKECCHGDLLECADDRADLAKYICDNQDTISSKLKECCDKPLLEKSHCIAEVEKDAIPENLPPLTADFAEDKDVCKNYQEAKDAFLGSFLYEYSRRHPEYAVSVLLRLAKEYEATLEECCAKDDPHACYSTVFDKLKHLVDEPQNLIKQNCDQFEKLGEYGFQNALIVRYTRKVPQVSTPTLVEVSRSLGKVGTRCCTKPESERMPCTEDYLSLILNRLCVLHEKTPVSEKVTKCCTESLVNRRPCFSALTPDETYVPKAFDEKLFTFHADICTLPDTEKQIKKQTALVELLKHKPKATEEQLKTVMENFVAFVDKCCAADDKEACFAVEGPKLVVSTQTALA

SMILES | Kb × 10^4 (M^-1)
Cc1ccc(C(C)C)c(OCc2nc(-c3ccc(Br)cc3)cs2)c1 [4c, 4-(4-bromophenyl)-2-((2-isopropyl-5-methylphenoxy)methyl)thiazole] | 2.61 × 10^4 M^-1
Cc1ccc(C(C)C)c(OCC(=NNc2nc(-c3ccc(Br)cc3)cs2)c2ccccc2)c1 [7c, 4-(4-bromophenyl)-2-(2-(2-(2-isopropyl-5-methylphenoxy)-1-phenylethylidene)hydrazineyl)thiazole] | 1.85 × 10^4 M^-1
Cc1ccc(C(C)C)c(OCC(=NNc2nc(-c3ccc4ccccc4c3)cs2)c2ccccc2)c1 [7d, 2-(2-(2-(2-isopropyl-5-methylphenoxy)-1-phenylethylidene)hydrazineyl)-4-(naphthalen-2-yl)thiazole] | 9.14 × 10^4 M^-1
COc1ccc(-c2csc(COc3cc(C)ccc3C(C)C)n2)cc1 [4a, 2-((2-isopropyl-5-methylphenoxy)methyl)-4-(4-methoxyphenyl)thiazole] | 6.60 × 10^4 M^-1
Cc1ccc(C(C)C)c(OCc2nc(-c3ccc4ccccc4c3)cs2)c1 [4d, 2-((2-isopropyl-5-methylphenoxy)methyl)-4-(naphthalen-2-yl)thiazole] | 8.51 × 10^4 M^-1
COc1ccc(-c2csc(NN=C(COc3cc(C)ccc3C(C)C)c3ccccc3)n2)cc1 [7a, 2-(2-(2-(2-isopropyl-5-methylphenoxy)-1-phenylethylidene)hydrazineyl)-4-(4-methoxyphenyl)thiazole] | 5.64 × 10^4 M^-1
Cc1ccc(C(C)C)c(OCC(=NNc2nc(-c3ccc(Cl)cc3)cs2)c2ccccc2)c1 [7b, 4-(4-chlorophenyl)-2-(2-(2-(2-isopropyl-5-methylphenoxy)-1-phenylethylidene)hydrazineyl)thiazole] | 18.02 × 10^4 M^-1
Cc1ccc(C(C)C)c(OCc2nc(-c3ccc(Cl)cc3)cs2)c1 [4b, 4-(4-chlorophenyl)-2-((2-isopropyl-5-methylphenoxy)methyl)thiazole] | 6.98 × 10^4 M^-1
